The subject of assay [1] is IL-6. Nature of the assay: TNFα-stimulated IL-6 production in primary bronchial epithelial cells from COPD. To be noted: Homo sapiens, Epithelial cell. Format: cell-based. As for the experimental part:
(§1) Primary airway epithelial cells obtained from patients with COPD were purchased from Asterand (Royston, UK), and maintained in bronchial epithelial cell growth media that was prepared by mixing together LHC8 (lnvitrogen) (500 mL), with LHC9 (Invitrogen) (500 mL) and 3 μL of retinoic acid solution (5 mg/mL in neat DMSO. The media was removed by aspiration and fresh BEGM (200 μL) was added to each well. Where appropriate, 1 μL of a solution of the test compound at the state concentrations or 1 μL of DMSO as the vehicle control was added and the cells were incubated for 2 hr. The cells were stimulated with TNFα (50 μL; final concentration 50 ng/mL) and then incubated for 4 hr at 37° C. and 5% CO2. The supernatant was then collected and kept at −20° C.
(§2) The levels of IL-6 and IL-8 were determined by ELISA using R&D Systems' Human IL-6 and IL-8 Duoset® Elisa Kits. The inhibition of IL-6 and IL-8 production was calculated at each concentration by comparison with vehicle control.

Assay [2] concerns IL-8. Nature of the assay: TNFα-stimulated IL-8 production in primary bronchial epithelial cells from COPD. The format is cell-based. Conditions: Homo sapiens, Epithelial cell. Here is the method: as §1, §2
Assay [3] deals with A/J mice. The assay is described as follows: Cigarette smoke model: macrophage and neutrophil accumulation in BALF. Format: in vivo, mouse. Conditions: for % inhibition Macrophage in BALF / % inhibition Neutrophil in BALF: tobacco smoke. Here is the method: A/J mice (males, 5 weeks old) were exposed to cigarette smoke (4% cigarette smoke, diluted with air) for 30 min/day for 11 days using a Tobacco Smoke Inhalation Experiment System for small animals (Model SIS-CS; Sibata Scientific Technology, Tokyo, Japan). […] At 12 hr after the last dosing, each of the animals was anesthetized, the trachea cannulated and bronchoalveolar lavage fluid (BALF) was collected. The numbers of alveolar macrophages and neutrophils were determined by FACS analysis (EPICS® ALTRA II, Beckman Coulter, Inc., Fullerton, Calif., USA) using anti-mouse MOMA2 antibody (macrophage) or anti-mouse 7/4 antibody (neutrophil). BALF was centrifuged and the supernatant was collected. The level of keratinocyte chemoattractant (KC; CXCL1) in BALF was quantitated using a Quentikine® mouse KC ELISA kit (R&D systems, Inc., Minneapolis, Minn., USA).

By IC50 is commonly meant the concentration needed to halve the response being measured. Lower therefore signals greater potency in that assay.

As to `Cc1ccc(-n2nc(C(C)(C)C)cc2NC(=O)Nc2ccc(Oc3ccnc(Nc4ccccc4)n3)c3ccccc23)cc1` [Example 1, 1-(3-(tert-Butyl)-1-(p-tolyl)-1H-pyrazol-5-yl)-3-(4-(2-(phenylamino)pyrimidin-4-yloxy)naphthalen-1-yl)urea], the IC50 in assay [1] (COPD patients, TNFα stimulated) came to 1.7 nM; in assay [2] (COPD patients, TNFα stimulated), 0.85 nM. The Emax at 0.1 µg/mL worked out at 100% in assay [1] (read-out: IL-6 E max, bronchial epithelial cell) and 100% in assay [2] (read-out: IL-8 E max, bronchial epithelial cell). Besides, the “macrophage accumulation in BALF induced by cigarette smoke, effect in words” value in assay [3] (mice) is reported as “dose-dependent inhibition”. Moreover, the “neutrophil accumulation in BALF induced by cigarette smoke, effect in words” value in assay [3] (mice) was “dose-dependent inhibition”. The “% inhibition Macrophage in BALF” value in assay [3] (0.32 μg/mL intra-nasal) was found to be 11%; in assay [3] (1.6 μg/mL intra-nasal), 28%; in assay [3] (8.0 μg/mL intra-nasal), 43%; in assay [3] (40 μg/mL intra-nasal) it was 64%. Also, the “% inhibition Neutrophil in BALF” value was found to be 12% in assay [3] (0.32 μg/mL intra-nasal), 29% in assay [3] (1.6 μg/mL intra-nasal), 41% in assay [3] (8.0 μg/mL intra-nasal) and 52% in assay [3] (40 μg/mL intra-nasal).

Values taken from patent publication US10238658B2, “1-pyrazolyl-3-(4-((2-anilinopyrimidin-4-yl) oxy) napththalen-1-yl) ureas as p38 MAP kinase inhibitors” (Respivert Limited, priority 2011, dated 2019).
